Measurements published in patent publication US11465987B2, “Compounds for treatment of cancer” (ONCTERNAL THERAPEUTICS, INC., priority 2012, dated 2022).
Like-named read-outs stand apart in the source and are kept apart here.

Experiments:
[1] = tested on: B16-F1 mouse melanoma cell line; test: Cytotoxicity (SRB) assay, B16-F1; type: cell-based; conditions: Mus musculus
[2] = tested on: A375 human melanoma cell line; test: Cytotoxicity (SRB) assay, A375; type: cell-based; conditions: Homo sapiens
[3] = tested on: WM-164 human melanoma cell line; test: Cytotoxicity (SRB) assay, WM-164; type: cell-based; conditions: Homo sapiens
[4] = tested on: DU 145 human prostate cancer cell line; test: Cytotoxicity (SRB) assay, DU 145; type: cell-based; conditions: Homo sapiens
Excerpt: (§1) Cells were stained with SRB solution.

[5] = tested on: PC-3 human prostate cancer cell line; test: cells
Excerpt: as §1

[6] = tested on: LNCaP human prostate cancer cell line; test: Cytotoxicity (SRB) assay, LNCaP; type: cell-based; conditions: Homo sapiens, LNCaP
Excerpt: as §1

[7] = tested on: PPC-1 human prostate cancer cell line; test: Cytotoxicity (SRB) assay, PPC-1; type: cell-based; conditions: Homo sapiens
Excerpt: as §1

[8] = tested on: melanoma and prostate cancer cell lines; test: Antiproliferative activity summarised over the cell line panel (range or average); type: cell-based
[9] = B16-F1, Table 11, read-out: IC50, B16-F1
[10] = A-375, Table 11, read-out: IC50, A375
[11] = WM164, Table 11, read-out: IC50, WM164
[12] = DU-145, Table 11, read-out: IC50, Du 145
[13] = Table 11, read-out: IC50, LNCaP
[14] = PPC-1, Table 11, read-out: IC50, PPC-1
[15] = Tables 11-13, read-out: IC50 (average of all seven cell lines)
[16] = B16-F1, Table 12, read-out: IC50 ± SEM, B16-F1 (converted)
[17] = A-375, Table 12, read-out: IC50 ± SEM, A375 (converted)
[18] = WM164, Table 12, read-out: IC50 ± SEM, WM164 (converted)
[19] = Homo sapiens, read-out: IC50 ± SEM, PC-3, Table 12
[20] = read-out: IC50 (range over tested cell lines)

| IC50 ([5]; read-out: IC50, PC-3, Table 11) | IC50 [8, 15] | SMILES | IC50 [1, 9] | IC50 [2, 10] | IC50 [3, 11] | IC50 [4, 12] | IC50 [6, 13] | IC50 [7, 14] | IC50 [1, 16] | IC50 [2, 17] | IC50 [3, 18] | IC50 [5, 19] | other results |
| --- | --- | --- | --- | --- | --- | --- | --- | --- | --- | --- | --- | --- | --- |
| > 10000 nM | > 10000 nM | COc1ccc(C(=O)c2c[nH]c(-c3ccccc3)n2)cc1OC [12ae, (3,4-dimethoxyphenyl)(2-phenyl-1H-imidazol-4-yl)methanone] | > 10000 nM | > 10000 nM | > 10000 nM | > 10000 nM | > 10000 nM | > 10000 nM | – | – | – | – | – |
| – | – | COc1cc(C(=O)c2c[nH]c(-c3ccc(O)cc3)n2)cc(OC)c1OC [12ka, (2-(4-hydroxyphenyl)-1H-imidazol-4-yl)(3,4,5-trimethoxyphenyl)methanone] | – | – | – | – | – | – | 2400 nM | 1600 nM | 1800 nM | – | – |
| – | – | COc1cc(C(=O)c2csc(-c3ccccc3)n2)cc(OC)c1OCCN1C(=O)c2ccccc2C1=O [compound 20] | – | – | – | – | – | – | – | – | – | – | IC50 ([1]; B16-F1, Table 6A, read-out: IC50 ± SEM, B16-F1 (converted)): 3100 nM; IC50 ([2]; A-375, Table 6A, read-out: IC50 ± SEM, A375 (converted)): 2300 nM; IC50 ([3]; WM164, Table 6A, read-out: IC50 ± SEM, WM164 (converted)): 1300 nM; IC50 ([4]; DU-145, Table 6A, read-out: IC50 ± SEM, DU 145): 642 nM; IC50 ([5]; Homo sapiens, read-out: IC50 ± SEM, PC-3, Table 6A): > 10000 nM; IC50 ([6]; Table 6A, read-out: IC50 ± SEM, LNCaP (converted)): 1450 nM; IC50 ([7]; PPC-1, Table 6A, read-out: IC50 ± SEM, PPC-1 (converted)): 633 nM |
| > 10000 nM | > 10000 nM | O=[N+]([O-])c1ccc(-c2nccn2S(=O)(=O)c2ccccc2)cc1 [10x, 2-(4-nitrophenyl)-1-(phenylsulfonyl)-1H-imidazole] | > 10000 nM | > 10000 nM | > 10000 nM | > 10000 nM | > 10000 nM | > 10000 nM | – | – | – | – | – |
| – | – | O=C(c1ccc(F)cc1)c1c[nH]c(-c2ccc(OCc3ccccc3)cc2)n1 [12jb, (2-(4-(benzyloxy)phenyl)-1H-imidazol-4-yl)(4-fluorophenyl)methanone] | – | – | – | – | – | – | 117 ± 16 nM | 93 ± 8 nM | 90 ± 12 nM | 79 ± 0.4 nM | increase in activity compared with 12kb ([8]; 12jb vs para-hydroxy compound 12kb): 440 fold |
| – | – | Cc1ccc(-c2nc(C(=O)c3ccc(F)cc3)c[nH]2)cc1 [12db, (4-fluorophenyl)(2-(p-tolyl)-1H-imidazol-4-yl)methanone] | – | – | – | – | – | – | 222 nM | – | 156 nM | – | IC50 ([7]; PPC-1, Table 12, read-out: IC50 ± SEM, PPC-1 (converted)): 54 nM; IC50 [8, 20]: 7.9 to 110 nM |
| > 10000 nM | > 10000 nM | O=C(c1cccc(F)c1)c1c[nH]c(-c2ccccc2)n1 [12ag, (3-fluorophenyl)(2-phenyl-1H-imidazol-4-yl)methanone] | > 10000 nM | > 10000 nM | > 10000 nM | > 10000 nM | > 10000 nM | > 10000 nM | – | – | – | – | – |
| – | – | COc1cc(/C=C\c2csc(-c3ccccc3)n2)cc(OC)c1OC [3a, (Z)-2-Phenyl-4-(3,4,5-trimethoxystyryl)thiazole] | – | – | – | – | – | – | – | – | – | – | IC50 ([3]; WM164, read-out: IC50 WM164): 10600 ± 5800 nM; IC50 ([5]; Homo sapiens, read-out: IC50 PC-3): > 10000 nM; antiproliferative activity in words ([8]; Tables 1-3): lost activity |
| > 10000 nM | > 10000 nM | O=S(=O)(c1ccccc1)n1ccnc1-c1ccccc1 [10a, 2-phenyl-1-(phenylsulfonyl)-1H-imidazole] | > 10000 nM | > 10000 nM | > 10000 nM | > 10000 nM | > 10000 nM | > 10000 nM | – | – | – | – | – |
| – | – | COc1cc(C(=O)c2c[nH]c(-c3cc(OC)c(OC)c(OC)c3)n2)cc(OC)c1OC [12ea, (3,4,5-trimethoxyphenyl)(2-(3,4,5-trimethoxyphenyl)-1H-imidazol-4-yl)methanone] | – | – | – | – | – | – | > 10000 nM | 4800 nM | > 10000 nM | – | IC50 ([8]; text on Tables 11-12, unit as printed, read-out: IC50 (average of all seven cell lines)): > 10000 nM |
| – | – | COc1cc(C(=O)c2c[nH]c(-c3ccc(N(C)C)cc3)n2)cc(OC)c1OC [12ga, (2-(4-(dimethylamino)phenyl)-1H-imidazol-4-yl)(3,4,5-trimethoxyphenyl)methanone] | – | – | – | – | – | – | 361 nM | 82 nM | 80 nM | 92 nM | IC50 [8, 20]: 7.9 to 110 nM |
| – | – | COc1cc(C(=O)c2c[nH]c(-c3ccc(F)cc3)n2)cc(OC)c1OC [12ba, (2-(4-fluorophenyl)-1H-imidazol-4-yl)(3,4,5-trimethoxyphenyl)methanone] | – | – | – | – | – | – | 320 ± 41 nM | 205 ± 19 nM | 73 ± 8 nM | 169 ± 12 nM | – |
| – | – | COc1ccc(-c2nc(C(=O)c3cc(OC)c(OC)c(OC)c3)c[nH]2)cc1 [12ca, (2-(4-methoxyphenyl)-1H-imidazol-4-yl)(3,4,5-trimethoxyphenyl)methanone] | – | – | – | – | – | – | 108 nM | 30 nM | 31 nM | 45 nM | IC50 ([6]; Table 12, read-out: IC50 ± SEM, LNCaP (converted)): 31 nM; IC50 [8, 20]: 7.9 to 110 nM |
